# Assays:
# [1] = Stain inhibition: 66 nylon yarn immersed in F, D & C Red 40 / citric acid staining solution
# Description: 3. […] A second yarn sample, Sample 2B, was immersed in staining/stain-inhibitor solution, Solution B, also for one minute. Both samples were then dried for 24 hours.
# 2. […] Thus, Solution 3B was prepared by adding 100 ppm of the ECG to Solution 3A.
# [2] = Stain inhibition: 66 nylon skein (yarn) soaked in cherry KOOL-AID solution; conditions: for AATCC Staining Scale Rating: 1 min soak, dried 24 h; for CIE L / CIE a / CIE b: Minolta Chromameter
# Description: (§1) Each solution was prepared by mixing 1 gram of the KOOL-AID® powder with enough water to make 450 to 500 cm^3 of solution.
# (§2) Solution 1A: prepared as set forth above, no sugar added.
# (§3) Solution 1B: Solution 1A+50 parts per million (ppm) tannic acid (certified, Fisher Scientific Co.).
# (§4) Solution 1C: Solution 1A+200 ppm tannic acid (same tannic acid as in Solution 1B, hereafter "TA").
# (§5) After the solutions were prepared, four 1 in^2 (6.45 cm^2) samples (Carpet Samples 1A, 1B, 1C, and Control) were cut from twisted, heat-set 66 nylon carpet, mock-acid dyed, and four 1-gram samples of 66 nylon skein (Test Fabrics, Middlesex, N.J.) were obtained (Yarn Samples 1A, 1B, 1C, and Control). Carpet Samples 1A, 1B, and 1C were soaked in 50 ml. of Solutions 1A, 1B, and 1C, respectively, for 1 minute, and allowed to dry for 24 hours. The Carpet Control Sample was not exposed to any of the solutions. The same procedure was followed with Yarn Samples 1A, 1B, 1C, and Control. (The carpet and skeins had been scoured in 0.1% non-ionic detergent to remove surface grease and finish.)
# (§6) All samples were rinsed thoroughly in distilled water, and allowed to dry.
# (§7) The amount of staining on each sample was evaluated by comparison with the AATCC Staining Scale (AATCC Test Method, 175-1991), and by the CIE L, a, b values obtained from the Minolta Chromameter.
# [3] = commercially-available tannic acid from natural sources; cited from earlier work
# [4] = Stain inhibition: 66 nylon carpet soaked in cherry KOOL-AID solution; conditions: for AATCC Staining Scale Rating: 1 min soak, dried 24 h; for CIE L / CIE a / CIE b: Minolta Chromameter
# Description: as §1, §2, §3, §4, §5, §6, §7
# [5] = test system: mice; conditions: oral, in mice; cited from earlier work
# [6] = Titration with NaOH; assay type: physicochemical
# [7] = Stain-inhibiting activity (general statements)
# [8] = 50 ppm TA in cherry KOOL-AID solution
# [9] = 200 ppm TA in cherry KOOL-AID solution
structure (smiles),measurement,setting,value
"O=C(O[C@@H]1Cc2c(O)cc(O)cc2O[C@@H]1c1ccc(O)c(O)c1)c1cc(O)c(O)c(O)c1 [ECG, Epicatechin gallate]",AATCC,"[1]; 100 ppm ECG in Red 40 staining solution pH 2.8, 1 min",7
same,CIE L,"[1]; 100 ppm ECG, Chromameter",81
same,CIE a,"[1]; 100 ppm ECG, Chromameter",4
same,CIE b,"[1]; 100 ppm ECG, Chromameter",2
"O=C(OC[C@H]1O[C@@H](OC(=O)c2cc(O)c(O)c(OC(=O)c3cc(O)c(O)c(O)c3)c2)[C@H](OC(=O)c2cc(O)c(O)c(OC(=O)c3cc(O)c(O)c(O)c3)c2)[C@@H](OC(=O)c2cc(O)c(O)c(OC(=O)c3cc(O)c(O)c(O)c3)c2)[C@@H]1OC(=O)c1cc(O)c(O)c(OC(=O)c2cc(O)c(O)c(O)c2)c1)c1cc(O)c(O)c(OC(=O)c2cc(O)c(O)c(O)c2)c1 [TA, tannic acid]",AATCC Staining Scale Rating,[2]; [8],7
same,CIE L,[2]; 50 ppm TA,81
same,CIE a,[2]; 50 ppm TA,12
same,CIE b,[2]; 50 ppm TA,4
same,AATCC Staining Scale Rating,[2]; [9],9
same,CIE L,[2]; 200 ppm TA,83
same,CIE a,[2]; 200 ppm TA,8
same,CIE b,[2]; 200 ppm TA,4
same,water solubility,[3],water soluble
same,AATCC Staining Scale Rating,[4]; [8],6
same,CIE L,[4]; 50 ppm TA,78
same,CIE a,[4]; 50 ppm TA,9
same,CIE b,[4]; 50 ppm TA,3
same,AATCC Staining Scale Rating,[4]; [9],10
same,CIE L,[4]; 200 ppm TA,83
same,CIE a,[4]; 200 ppm TA,0.8
same,CIE b,[4]; 200 ppm TA,2
same,LD50,[5],6000 mg/kg
same,inflection point pH when titrated with NaOH,[6],about 4.5
Oc1cccc(O)c1O [pyrogallol],stain-inhibiting activity,[7],do not appear to exhibit stain-inhibiting activity
Oc1cccc(O)c1 [resorcinol],stain-inhibiting activity,[7],do not appear to exhibit stain-inhibiting activity
